The results in this text go back to patent publication US20240199677A1, “GLYCOSYLTRANSFERASE INHIBITORS” (CALIFORNIA INSTITUTE OF TECHNOLOGY, priority 2018, published 2024).

For one series, the system named is C. difficile spores. As to the kind of experiment: Spore viability testing. The settings on record: for Effect on viability of C. difficile spores (CFU): x2 MIC, 24 hours; for Inhibition of spore germination: x5 MIC. It counts as cell-based.
The test system of a further series is C. difficile ATCC43596. As to the kind of experiment: Minimum inhibitory concentration assay. The settings on record: for MIC: Clostridioides difficile, ATCC43596, 48 h, read-out: C. difficile ATCC43596 MIC; for C. difficile ATCC43596 MIC: 48 h, 37° C.
The next series can be described thus: Hemolysis, sheep blood. Type of series: cell-based. The settings on record: sheep, sheep blood.
For another series, the system named is Vero cells. Description: Cytotoxicity MTT assay, Vero cells. Type of series: cell-based, monkey. Here is the method: (§1) Cytotoxicity Assays. Cytotoxicity assays were performed using Vero monkey kidney (ATCC CCL-81) and HepG2 human hepatoblastoma cell (ATCC HB-8065) lines. Vero or HepG2 cells were cultured in 75 cm^2 flasks and transferred to 96-well cell culture plates using ATCC-formulated Eagle's minimum essential medium containing 10% FBS, penicillin, and streptomycin. Serially diluted aliquots of each test compound at concentrations ranging from 0.78-200 μg/mL were added to the cells. […] The plates were incubated and cytotoxic effects were determined via the MTT assay.
(§2) Selected molecules were tested for cytotoxicity (IC50) in cancer and healthy cells via a MTT colorimetric assay.
(§3) Cytotoxicity Assays. For Vero cells: Vero cell was cultured in Complete eagle's minimum essential growth medium (EMEM) containing L-glutamine, sodium pyruvate, minimum essential amino acids, penicillin-streptomycin and 10% fetal bovine serum. Inoculating number of cells were 400,000 cells/mL and a final 40,000 cells/well. After 72 h of exposure of molecules to this cell line at concentrations ranging from 0.78 to 200 μg/mL, the culture medium was changed to complete EMEM without phenol red before addition of yellow tetrazolium dye; MTT. Viability was assessed on the basis of cellular conversion of MTT into a purple formazan product. The absorbance of the colored formazan product was measured at 570 nm by BioTek Synergy HT Spectrophotometer. Linearity of the MTT response to the cell number was determined.
For orientation: Formazan colour is commonly taken as a measure of viable cells.

The subject of the next series is MraY. The settings on record: read-out: MraY inhibition IC50.
The subject of series [1] is AsPc-1 cells. As to the kind of experiment: Synergistic assay (checkerboard), 11 and Gemcitabine. Type of series: cell-based. Here is the method:
(§4) The FIC index was calculated according to the following equation. ΣFIC=FICA+FICB=CA/MICA+CB/MICB where MICA and MICB are MIC of drugs A and B, CA and CB are the concentrations of drugs A and B used in combination. In these interaction studies, ΣFIC of less than 0.5 represents synergistic activity.
These experiments were performed in the same manner as those of Example 7.

Another series deals with Panc-1. Description: Cytotoxicity MTT assay, Panc-1. Type of series: cell-based. Here is the method: as §2
(§5) Each cell was cultured in recommended medium by ATCC, and the IC50 data were obtained with each cell line.

Series [2] can be described thus: Cytotoxicity MTT assay, Vero cells. Type of series: cell-based, monkey. The settings on record: monkey. Here is the method: as §1, §2, §3
The test system of the next series is KB. As to the kind of experiment: Cytotoxicity MTT assay, KB. Type of series: cell-based. Here is the method: as §2, §5
The test system of series [3] is AsPc-1 cells. Description: Synergistic assay (checkerboard), 11 and Paclitaxel. It counts as cell-based. Here is the method: as §4
The next series concerns SK-OV-3. As to the kind of experiment: Cytotoxicity MTT assay, SK-OV-3. It counts as cell-based. Here is the method:
as §2, §5

The next series relates to HPAF-II. As to the kind of experiment: Cytotoxicity MTT assay, HPAF-II. Type of series: cell-based. Here is the method: as §2, §5
In a further series the test system is LoVo. Description: Cytotoxicity MTT assay, LoVo. Type of series: cell-based. Here is the method: as §2, §5
A further series relates to L12210. As to the kind of experiment: Cytotoxicity MTT assay, L12210. It counts as cell-based. Here is the method:
as §2, §5

A further series has as its system MDA-MB-435S. Description: Cytotoxicity MTT assay, MDA-MB-435S. It counts as cell-based. Here is the method: as §2, §5
For a further series, the system named is AsPc-1. Description: Cytotoxicity MTT assay, AsPc-1. It counts as cell-based. Here is the method:
as §2, §5

The target in the next series is M. jannaschii AgIH (Methanocaldococcus jannaschii (strain ATCC 43067 / DSM 2661 / JAL-1 / JCM 10045 / NBRC 100440) (Methanococcus jannaschii), UniProt Q58513). The settings on record: read-out: AgIH inhibition IC50, M. jannaschii AgIH.
The subject of the next series is Caco-2. Description: Cytotoxicity MTT assay, Caco-2. It counts as cell-based. The settings on record: human. Here is the method:
as §2, §5

The next series concerns HepG2. Description: Cytotoxicity MTT assay, HepG2. Type of series: cell-based. The settings on record: human.

≈ marks a conversion by molar mass, not a printed value. Read-outs that look alike come from different tables or passages of the source.

Sequence of M. jannaschii AgIH (Q58513 whole entry, looked up): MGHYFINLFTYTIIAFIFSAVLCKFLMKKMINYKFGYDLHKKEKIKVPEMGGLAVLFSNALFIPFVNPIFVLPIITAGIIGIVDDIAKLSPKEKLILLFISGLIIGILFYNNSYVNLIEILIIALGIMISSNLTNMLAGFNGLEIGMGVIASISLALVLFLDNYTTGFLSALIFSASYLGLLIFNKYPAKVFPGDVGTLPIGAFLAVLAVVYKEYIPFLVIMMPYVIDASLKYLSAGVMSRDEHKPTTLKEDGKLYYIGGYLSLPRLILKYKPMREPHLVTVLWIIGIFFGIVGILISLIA

`CCCCCCCc1ccc(NC(=O)CCCN(C)[C@H](C(N)=O)[C@H](OC2O[C@H](CN)[C@@H](O)[C@H]2O)[C@H]2O[C@@H](n3ccc(=O)[nH]c3=O)C(O)[C@H]2O)cc1` (stereo partly drawn) [Compound 9]: the “Effect on viability of C. difficile spores (CFU)” value in the series on C. difficile spores is “caused loss of viability of C. difficile spores”. In addition, in the series on C. difficile ATCC43596, the Anti-C. difficile activity entry is listed as “display anti-C. difficile activity” and the MIC was found to be 25 µg/mL (≈ 34.7 µM).

As for `CCCCCCCc1ccc(NC(=O)CCCN[C@H](C(N)=O)[C@H](OC2O[C@H](CN)[C@@H](O)[C@H]2O)[C@H]2O[C@@H](n3ccc(=O)[nH]c3=O)C(O)[C@H]2O)cc1` (stereo partly drawn) [Compound 10], the “Effect on viability of C. difficile spores (CFU)” value in the series on C. difficile spores was “caused loss of viability of C. difficile spores”. Besides, the IC50 in “Hemolysis, sheep blood” came to 70 µM; in the series with Vero cells (Primates, Vero, Table 2, read-out: Vero cells IC50), 7.08 µM. Besides, the Anti-C. difficile activity result in the series on C. difficile ATCC43596 was “display anti-C. difficile activity”.

Turning to `CN(CCCC(=O)NCc1ccc(N2CCC(Oc3ccc(C(F)(F)F)cc3)CC2)cc1)[C@H](C(N)=O)[C@H](O[C@@H]1O[C@H](CN)[C@@H](O)[C@H]1O)[C@H]1O[C@@H](n2ccc(=O)[nH]c2=O)[C@H](O)C1O` (stereo partly drawn) [Compound 12], in the series on C. difficile ATCC43596, the Anti-C. difficile activity result is “display anti-C. difficile activity” and the minimum inhibitory concentration (MIC) was 50 µg/mL (≈ 56.8 µM).

Take `CN(CCCN)[C@H](C(=O)O)[C@H](O[C@@H]1O[C@H](CN)[C@@H](O)[C@H]1O)[C@H]1O[C@@H](n2ccc(=O)[nH]c2=O)[C@H](O)[C@@H]1O` [FR-900493 (1), FR-900493, reference compound]: the half-inhibitory concentration (IC50) with MraY came to 25 µM. The “C. difficile ATCC43596 MIC” value in the series with C. difficile ATCC43596 is over 50 µg/mL.

As to `Nc1ccn([C@@H]2O[C@H](CO)[C@@H](O)C2(F)F)c(=O)n1` [Gemcitabine, reference compound], in the series on AsPc-1 cells [1] (Homo sapiens, ASPC1, Gemcitabine alone, AsPc-1 cells, read-out: IC50 B), the concentration for half-maximal inhibition (IC50) was 0.39 µM. For the same compound, in the series on AsPc-1 cells [1] (as low as, 11 together with Gemcitabine), the “Concentration in combination resulting in AsPc-1 cell death” value came to 0.977 µM.

Consider `CC(=O)O[C@H]1C(=O)[C@@]2(C)[C@H]([C@H](OC(=O)c3ccccc3)[C@]3(O)C[C@H](OC(=O)[C@H](O)[C@@H](NC(=O)c4ccccc4)c4ccccc4)C(C)=C1C3(C)C)[C@]1(OC(C)=O)CO[C@@H]1C[C@@H]2O` [Taxol, Paclitaxel], for which the IC50 in the series on Panc-1 (Homo sapiens, PANC-1, read-out: Cytotoxicity IC50 Panc-1) was found to be 0.02 µM; in the series on KB (Homo sapiens, KB, read-out: Cytotoxicity IC50 KB), 0.79 µM; with AsPc-1 cells [3] (Homo sapiens, ASPC1, Paclitaxel alone, AsPc-1 cells, read-out: IC50 B) it was 0.55 µM; with SK-OV-3 (Homo sapiens, SK-OV-3, read-out: Cytotoxicity IC50 SK-OV-3), 1.08 µM; with HPAF-II (Homo sapiens, HPAF-II, read-out: Cytotoxicity IC50 HPAF-II) it was 0.02 µM; in the series with LoVo (Homo sapiens, LoVo, read-out: Cytotoxicity IC50 LoVo) it was 0.057 µM. For the same compound, the 50% inhibitory concentration (IC50) was 0.55 µM in the series on L12210 (read-out: Cytotoxicity IC50 L12210); 0.11 µM with MDA-MB-435S (Homo sapiens, MDA-MB-435S, read-out: Cytotoxicity IC50 MDA-MB-435S); 0.19 µM with AsPc-1 (Homo sapiens, ASPC1, read-out: Cytotoxicity IC50 AsPc-1). The concentration for half-maximal inhibition (IC50) at 72 h in series [2] is 0.19 µM. Further, in the series with AsPc-1 cells [3] (as low as, combined with 11), the “Taxol concentration to kill AsPc-1 cells when combined with 11” value was 7 nM.

`CC(=O)NC[C@H]1CN(c2ccc(N3CCOCC3)c(F)c2)C(=O)O1` [linezolid, reference compound]: the “Inhibition of spore germination” value with C. difficile spores was “did not inhibit the spore germination”.

As for `Cc1ncc([N+](=O)[O-])n1CCO` [metronidazole, reference compound], in the series on C. difficile spores, the “Inhibition of spore germination” value is on record as “did not inhibit the spore germination”.

With `CN[C@H](CC(C)C)C(=O)N[C@H]1C(=O)N[C@@H](CC(N)=O)C(=O)N[C@H]2C(=O)N[C@H]3C(=O)N[C@H](C(=O)N[C@H](C(=O)O)c4cc(O)cc(O)c4-c4cc3ccc4O)[C@H](O)c3ccc(c(Cl)c3)Oc3cc2cc(c3O[C@@H]2O[C@H](CO)[C@@H](O)[C@H](O)[C@H]2O[C@H]2C[C@](C)(N)[C@H](O)[C@H](C)O2)Oc2ccc(cc2Cl)[C@H]1O` [vancomycin, reference compound], in the series on C. difficile spores, the “Inhibition of spore germination” value was “did not inhibit the spore germination”. The minimum inhibitory concentration (MIC) in the series on C. difficile ATCC43596 stood at 2.5 µg/mL (≈ 1.73 µM).

In the case of Tunicamycin, the IC50 was determined as 0.625 µM in the series with Panc-1 (human); 13.3 µM on M. jannaschii AgIH; 0.12 µM with Vero cells (Table 2, read-out: Vero cells IC50); 0.12 µM in the series on Vero cells (Table 3, 72 h exposure, read-out: Cytotoxicity IC50 Vero); 2.5 µM in the series on KB (human); 1.85 µM in the series with SK-OV-3 (human). The half-maximal inhibitory concentration (IC50) was under 0.098 µM with HPAF-II (human); 1.7 µM with LoVo (human); 1.7 µM with L12210 (mouse); 0.95 µM with Caco-2; 0.19 µM in the series on HepG2; 0.9 µM with MDA-MB-435S (human). The compound further returned an IC50 in the series on AsPc-1 (human) of 0.46 µM. Further, the “C. difficile ATCC43596 MIC” value in the series with C. difficile ATCC43596 was over 50 µg/mL.

One may read the MIC as the least concentration at which growth counts as inhibited. A word on the IC50: it is the concentration needed to halve the response being measured.
